Source: patent publication US12540163B2 (priority 2021, dated 2026)
Values joined by “and” are separate entries in the source; they are usually repeats but may differ in a detail not shown here. Identical values can stand only once.

Legend:
[1] = tested on: non-capacitated human sperm
[2] = tested on: non-capacitated human sperm; remark: listed apart in the source
[3] = tested on: hHv1 in human sperm
[4] = biological target: hHv1 (Homo sapiens, UniProt Q96D96)
Sequence of hHv1 (Q96D96 whole entry): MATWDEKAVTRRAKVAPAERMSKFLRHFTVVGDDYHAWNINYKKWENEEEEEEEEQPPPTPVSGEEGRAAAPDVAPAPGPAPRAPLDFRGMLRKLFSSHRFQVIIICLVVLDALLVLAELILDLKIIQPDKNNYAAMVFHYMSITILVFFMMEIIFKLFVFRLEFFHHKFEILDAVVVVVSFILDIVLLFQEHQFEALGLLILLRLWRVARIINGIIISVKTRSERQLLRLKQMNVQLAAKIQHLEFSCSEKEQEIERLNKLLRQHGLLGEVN

bovine serum albumin [BSA]
increase of progesterone-induced peak [Ca2+]i [1]: 2.2 fold | change of pHi [2]: increased the speed of cytoplasmic alkalization

CC(C)[C@H]1c2ccc(F)cc2CC[C@@]1(CCN(C)CCCc1nc2ccccc2[nH]1)OC(=O)C1CC1 [NNC]
inhibition of Alb-potentiated [Ca2+]i increase [1]: inhibited

O=C(O)CN(CCN(CC(=O)O)CC(=O)O)CC(=O)O [EDTA]
Sperm H+ current V1/2 after application [3]: 4 mV and 4 ± 1 mV | Sperm H+ current V1/2 shift [3]: 11 mV | hHv1 in HEK293T cells V1/2 after application [4]: −29 ± 3 mV
